Ki data for three molecules are collected here from PMC11202288, “The Structural Basis of the Activity Cliff in Modafinil-Based Dopamine Transporter Inhibitors” (Biomolecules, 2024).

Where two headings read alike, the source gives them in different places.

A word on the Ki: it is the dissociation constant of the complex between target and ligand, obtained from inhibition or displacement.

The experiment addresses T1, hDAT (human dopamine transporter) (Homo sapiens, UniProt Q01959).
T1 construct: gene SLC6A3; full-length human DAT stably expressed in HEK293 cells; membrane preparation
Kind of experiment: [3H]WIN35, […] competition binding, HEK293-hDAT membranes.

The mark [1] stands for this setting: read-out: hDAT Ki ± SEM (nM) ^a (n).

T1 sequence (Q01959 whole entry): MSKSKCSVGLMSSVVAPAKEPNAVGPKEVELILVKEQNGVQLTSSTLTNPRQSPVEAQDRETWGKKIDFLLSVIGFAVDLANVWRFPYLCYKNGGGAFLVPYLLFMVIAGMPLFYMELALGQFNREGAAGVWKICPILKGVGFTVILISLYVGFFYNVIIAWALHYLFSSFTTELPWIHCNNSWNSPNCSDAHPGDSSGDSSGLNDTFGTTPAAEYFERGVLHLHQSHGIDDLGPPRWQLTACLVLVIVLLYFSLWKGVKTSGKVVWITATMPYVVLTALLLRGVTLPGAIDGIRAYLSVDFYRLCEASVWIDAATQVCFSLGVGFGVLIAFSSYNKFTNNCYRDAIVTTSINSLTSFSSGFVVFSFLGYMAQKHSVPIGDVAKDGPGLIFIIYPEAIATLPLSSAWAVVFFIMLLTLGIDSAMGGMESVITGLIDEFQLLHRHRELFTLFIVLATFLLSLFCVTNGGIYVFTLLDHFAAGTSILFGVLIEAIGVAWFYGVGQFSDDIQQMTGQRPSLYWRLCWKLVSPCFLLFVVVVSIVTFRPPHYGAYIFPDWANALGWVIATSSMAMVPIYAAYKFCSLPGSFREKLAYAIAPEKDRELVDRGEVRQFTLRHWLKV

Turning to `CC(O)CN1[C@H](C)CN(CC[S+]([O-])C(c2ccc(F)cc2)c2ccc(F)cc2)C[C@@H]1C` (stereo partly drawn) [RDS4-010], under setting [1], the Ki stood at 1570 ± 186 nM.

As to `CC(O)CN1[C@H](C)CN(CCSC(c2ccc(F)cc2)c2ccc(F)cc2)C[C@@H]1C` (stereo partly drawn) [RDS3-094], the affinity corresponds to a Ki of 50.1 ± 6.51 nM.

Regarding `CC(O)CN1CCN(CCSC(c2ccc(F)cc2)c2ccc(F)cc2)CC1` (stereo not drawn) [JJC8-089], under setting [1], the inhibitory constant (Ki) was determined as 69.1 ± 10.5 nM.
